From US11925629B2, “Heterocyclic inhibitors of ERK1 and ERK2 and their use in the treatment of cancer” (Asana Biosciences, LLC, priority 2015, dated 2024)
Read-outs that look alike come from different tables or passages of the source.

Tests used:
[1] = system: HCT116 (colorectal carcinoma, K Ras G13D) cells; assay: Cell proliferation (Alamar Blue) assay, HCT116; type: cell-based, human
In short: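 5000 cells/well, 16-24 h attach; cpd 0.0005-10 uM (3-fold dilns) x 72 h, 37° C./5% CO2; Alamar Blue 1× 1-3 h; fluor 540/590 nm; IC50, variable-slope sigmoid.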

[2] = system: phosphorylation of RSK1(S380) (the downstream target of ERK1/2); assay: Phospho-RSK1(S380) ELISA assay in HT-29 cells; type: cell-based, human; conditions: phospho-RSK1(S380), read-out: Mechanistic Cell Assay RSK1 Phos HT29 IC50
Protocol: Phospho-RSK1(S380) ELISA Assay
HT-29 cells (colorectal carcinoma, B-RafV600E); obtained from ATCC, USA) were seeded (60,000 cells/well) in a 96-well plate and incubated at 37° C./5% CO2 overnight and then treated with desired compound dilutions for 2 h. Medium was removed and cells were rinsed once with ice-cold 1×PBS, then 0.070 mL ice-cold 1× cell lysis buffer containing 1 mM PMSF was added to each well and the plate was incubated on a shaker for 2 h and 30 min at 4° C. The plate was then centrifuged for 20 min (×4000 rpm) at 4° C. and the supernatant was transferred to a new plate. Cell lysates were diluted with sample diluent at a ratio of 1:1. The ELISA was then carried out following the manufacturer's protocol (PathScan® phospho-RSK1(Ser380) Sandwich ELISA Kit, Cell Signaling Technologies). The plate was read at 450 nm within 30 min after adding STOP solution. The IC50 values were subsequently determined using a sigmoidal dose-response curve (variable slope) in GraphPad Prism® 5 software.

[3] = Homo sapiens, HCT-116, HCT116 cells
[4] = Homo sapiens, HT-29, HT29 cells

| Compound | IC50 [1, 3] | IC50 [2, 4] | IC50 ([1]; HCT116 cells) | IC50 ([2]; HT29 cells) |
| --- | --- | --- | --- | --- |
| Cc1cnc(NC2CCOCC2)nc1-n1cnc(C(=O)NC(c2cccc(Cl)c2)C(C)O)c1 (single isomer, unassigned; isomer #2) [Example 252, N-(1-(3-chlorophenyl)-2-hydroxypropyl)-1-(5-methyl-2-((tetrahydro-2H-pyran-4-yl)amino)pyrimidin-4-yl)-1H-imidazole-4-carboxamide (isomer #2)] | 250 to 500 nM | 100 to 250 nM |  |  |
| Cc1cnc(Nc2ccc(Oc3ccccc3)cc2)nc1-n1cnc(C(=O)N[C@H](CO)c2cccc(Cl)c2)c1 (stereo in doubt) [Example 250, N-(1-(3-chlorophenyl)-2-hydroxyethyl)-1-(5-methyl-2-((4-phenoxyphenyl)amino)pyrimidin-4-yl)-1H-imidazole-4-carboxamide] | > 2500 nM | 500 to 2500 nM |  |  |
| Cc1cnc(Nc2ccc(F)cc2Cl)nc1-n1ccc(C(=O)N[C@H](CO)c2cccc(Cl)c2)c1 [Cmpd 29, (S)-1-(2-((2-chloro-4-fluorophenyl)-amino)-5-methyl-pyrimidin-4-yl)-N-(1-(3-chlorophenyl)-2-hydroxy-ethyl)-1H-pyrrole-3-carboxamide] |  | 250 to 500 nM |  |  |
| Cc1cnc(Nc2ccc(F)cc2)cc1-n1cnc(C(=O)NC(CN)c2ccccc2)c1 (centres unmarked) [Compound #191, N-(2-amino-1-phenylethyl)-1-(2-((4-fluorophenyl)amino)-5-methylpyridin-4-yl)-1H-imidazole-4-carboxamide] |  | 100 to 250 nM |  |  |
| O=C(Nc1cnn(-c2ccnc(Nc3ccccc3)c2)c1)N[C@H](CO)c1cccc(Cl)c1 [Example 34, (S)-1-(1-(3-chlorophenyl)-2-hydroxy-ethyl)-3-(1-(2-(phenyl-amino)pyridin-4-yl)-1H-pyrazol-4-yl)urea] | > 2500 nM | > 2500 nM |  |  |
| Cc1cnc(NC2CCOCC2)nc1-n1cnc(C(=O)NCc2ccccc2CCO)c1 [Example 94, N-(2-(2-hydroxy-ethyl)benzyl)-1-(5-methyl-2-((tetrahydro-2H-pyran-4-yl)amino)pyrimidin-4-yl)-1H-imidazole-4-carboxamide] |  |  | 500 to 2500 nM | 500 to 2500 nM |
| CC(=O)NCC(NC(=O)c1ccn(-c2cc(Nc3ccc(F)cc3)ncc2C)c1)c1ccccc1 (centres unmarked) [Example 135, N-(2-acetamido-1-phenylethyl)-1-(2-((4-fluorophenyl)-amino)-5-methyl-pyridin-4-yl)-1H-pyrrole-3-carboxamide] |  | 500 to 2500 nM |  |  |
| O=C(NC(CO)c1cccc(Cl)c1)c1ccn(-c2ccnc(NC3CCNC3)c2)c1 (centres unmarked) [Example 145, N-(1-(3-chloro-phenyl)-2-hydroxy-ethyl)-1-(2-(pyrrolidin-3-ylamino)pyridin-4-yl)-1H-pyrrole-3-carboxamide] |  | > 2500 nM |  |  |
| Cc1cnc(NC2CCOCC2)nc1-n1cnc(C(=O)NC(CO)c2cccs2)c1 (centres unmarked) [Example 233, N-(2-hydroxy-1-(thiophen-2-yl)ethyl)-1-(5-methyl-2-((tetrahydro-2H-pyran-4-yl)amino)pyrimidin-4-yl)-1H-imidazole-4-carboxamide] | > 2500 nM | ≤ 100 nM |  |  |
| Cc1cnc(NC2CCOCC2)nc1-n1cnc(C(=O)NC(CO)c2ccsc2)c1 (centres unmarked) [Example 234, N-(2-hydroxy-1-(thiophen-3-yl)ethyl)-1-(5-methyl-2-((tetrahydro-2H-pyran-4-yl)amino)pyrimidin-4-yl)-1H-imidazole-4-carboxamide] |  | 500 to 2500 nM |  |  |
| Cc1cnc(NC2CCOC2)nc1-n1cnc(C(=O)NC(CN)c2cccc(Cl)c2)c1 (centres unmarked) [Example 235, N-(2-amino-1-(3-chlorophenyl)ethyl)-1-(5-methyl-2-((tetrahydrofuran-3-yl)amino)pyrimidin-4-yl)-1H-imidazole-4-carboxamide] | 100 to 250 nM | 100 to 250 nM |  |  |
| Cc1cnc(NC2CCOCC2)nc1-n1cnc(C(=O)NC(CO)c2cccc(C(F)(F)F)c2)c1 (centres unmarked) [Example 237, N-(2-hydroxy-1-(3-(trifluoromethyl)phenyl)ethyl)-1-(5-methyl-2-((tetrahydro-2H-pyran-4-yl)amino)pyrimidin-4-yl)-1H-imidazole-4-carboxamide] | > 2500 nM | 250 to 500 nM |  |  |
| Cc1cccc(C(CO)NC(=O)c2cn(-c3nc(NC4CCOCC4)ncc3C)cn2)c1 (centres unmarked) [Example 238, N-(2-hydroxy-1-(m-tolyl)ethyl)-1-(5-methyl-2-((tetrahydro-2H-pyran-4-yl)amino)pyrimidin-4-yl)-1H-imidazole-4-carboxamide] | 500 to 2500 nM | 250 to 500 nM |  |  |
| Cc1cnc(NC2CCC(F)(F)CC2)nc1-n1cnc(C(=O)N[C@H](CO)c2cccc(Cl)c2)c1 [Example 240, (S)-N-(1-(3-chlorophenyl)-2-hydroxyethyl)-1-(2-((4,4-difluorocyclohexyl)amino)-5-methylpyrimidin-4-yl)-1H-imidazole-4-carboxamide] | 250 to 500 nM | 100 to 250 nM |  |  |
| Cc1cnc(Nc2ccc(F)cc2Cl)nc1-n1cnc(C(=O)N[C@H](CO)c2cccc(Cl)c2)c1 [Example 241, (S)-1-(2-((2-chloro-4-fluorophenyl)amino)-5-methylpyrimidin-4-yl)-N-(1-(3-chlorophenyl)-2-hydroxyethyl)-1H-imidazole-4-carboxamide] | > 2500 nM | 250 to 500 nM |  |  |
| Cc1cnc(N[C@H]2CC[C@@H](O)CC2)nc1-n1cnc(C(=O)N[C@H](CO)c2cccc(Cl)c2)c1 [Example 242, N-((S)-1-(3-chlorophenyl)-2-hydroxyethyl)-1-(2-(((1r,4S)-4-hydroxycyclohexyl)amino)-5-methylpyrimidin-4-yl)-1H-imidazole-4-carboxamide] | 500 to 2500 nM | 250 to 500 nM |  |  |
| Cc1cnc(NC2CCOCC2)nc1-n1cnc(C(=O)NCc2ccccc2CCO)c1 [Example 243, N-(2-(2-hydroxyethyl)benzyl)-1-(5-methyl-2-((tetrahydro-2H-pyran-4-yl)amino)pyrimidin-4-yl)-1H-imidazole-4-carboxamide] |  | 500 to 2500 nM | > 2500 nM |  |
| Cc1cnc(NC2CCOCC2)nc1-n1cnc(C(=O)N[C@]2(c3cccc(Cl)c3)C[C@@H](O)C2)c1 [Example 245, N-((1s,3s)-1-(3-chlorophenyl)-3-hydroxycyclobutyl)-1-(5-methyl-2-((tetrahydro-2H-4-yl)amino)pyrimidin-4-yl)-1H-imidazole-4-carboxamide] | 500 to 2500 nM | 250 to 500 nM |  |  |
| Cc1cnc(NC2CCS(=O)(=O)C2)nc1-n1cnc(C(=O)N[C@H](CO)c2cccc(Cl)c2)c1 (stereo partly drawn) [Example 246, N-((S)-1-(3-chlorophenyl)-2-hydroxyethyl)-1-(2-((1,1-dioxidotetrahydrothiophen-3-yl)amino)-5-methylpyrimidin-4-yl)-1H-imidazole-4-carboxamide] | > 2500 nM | > 2500 nM |  |  |
| Cc1cnc(NC2CCOc3ccccc32)nc1-n1cnc(C(=O)N[C@H](CO)c2cccc(Cl)c2)c1 (stereo partly drawn) [Example 247, N-((S)-1-(3-chlorophenyl)-2-hydroxyethyl)-1-(2-(chroman-4-ylamino)-5-methylpyrimidin-4-yl)-1H-imidazole-4-carboxamide] | > 2500 nM | ≤ 100 nM |  |  |
| Cc1cnc(Nc2ccc(F)cc2)nc1-n1cnc(C(=O)N[C@H](CN)c2cccc(Cl)c2)c1 [Example 248, (S)-N-(2-amino-1-(3-chlorophenyl)ethyl)-1-(2-((4-fluorophenyl)amino)-5-methylpyrimidin-4-yl)-1H-imidazole-4-carboxamide] | ≤ 100 nM | 100 to 250 nM |  |  |
| Cc1cnc(Nc2ccc(F)cc2)nc1-n1cnc(C(=O)N[C@@H](CN)c2cccc(Cl)c2)c1 [Example 249, (R)-N-(2-amino-1-(3-chlorophenyl)ethyl)-1-(2-((4-fluorophenyl)amino)-5-methylpyrimidin-4-yl)-1H-imidazole-4-carboxamide] | 500 to 2500 nM | 500 to 2500 nM |  |  |
| Cc1cnc(NC2CCOC(C)C2)nc1-n1cnc(C(=O)N[C@H](CO)c2cccc(Cl)c2)c1 (stereo partly drawn) [Example 251, N-((S)-1-(3-chlorophenyl)-2-hydroxyethyl)-1-(5-methyl-2-((2-methyltetrahydro-2H-pyran-4-yl)amino)pyrimidin-4-yl)-1H-imidazole-4-carboxamide] | 250 to 500 nM | ≤ 100 nM |  |  |
| Cc1cnc(NC2CCOCC2)nc1-n1cnc(C(=O)NCc2sccc2CN)c1 [Example 294, N-((3-(aminomethyl)thiophen-2-yl)methyl)-1-(5-methyl-2-((tetrahydro-2H-pyran-4-yl)amino)pyrimidin-4-yl)-1H-imidazole-4-carboxamide] |  | > 2500 nM |  |  |
| Cc1cnc(NC2CCOCC2)nc1-n1cnc(C(=O)N[C@H](CO)c2cc(F)cc(Cl)c2)c1 [Example 295, (S)-N-(1-(3-chloro-5-fluorophenyl)-2-hydroxyethyl)-1-(5-methyl-2-((tetrahydro-2H-pyran-4-yl)amino)pyrimidin-4-yl)-1H-imidazole-4-carboxamide] |  | ≤ 100 nM |  |  |
| Cc1cnc(NC2CCN(C)CC2)nc1-n1cnc(C(=O)N[C@H](CO)c2cccc(Cl)c2)c1 [Example 296, (S)-N-(1-(3-chlorophenyl)-2-hydroxyethyl)-1-(5-methyl-2-((1-methylpiperidin-4-yl)amino)pyrimidin-4-yl)-1H-imidazole-4-carboxamide] |  | 500 to 2500 nM |  |  |
